Source: patent US20160084823A1, “METHODS AND KITS FOR TESTING THE GE[…] AN AGENT” (INSERM (INSTITUT NATIONAL DE LA SANTÉ ET DE LA RECHERCHE …, priority 2013, published 2016)

System: p53 target genes (KIAA0284; PODXL1; RRAD; FHL2; TP53I3)
Assay: p53 genotoxicity assay: RT-QMPSF of p53 target gene induction in EBV-immortalized human lymphocytes (wild type TP53 vs p.R175H)
Details: 0.3 μM doxorubicin; lymphocytes from a healthy control and from a Li-Fraumeni patient with p.R175H germline mutation; FIG. 2
Protocol: In the first version of this assay EBV-immortalized human lymphocytes derived from healthy blood donor with wild type TP53 or Li-Fraumeni patients harboring germline heterozygous TP53 mutations are cultured in 24 well plates, during 5 h, with or without the chemicals to test. RNA is then extracted using Nucleospin RNAII kit (Macherey Nagel). […] RT-QMPSF analysis using 5 TP53 target genes and 2 control amplicons are performed on cells treated or not with the chemicals and profiles were compared after normalization on controls amplicons.
In each case, the TP53 genotype of EBV-immortalized lymphocytes was checked by sequencing and QMPSF analyses. EBV-transformed lymphocytes were maintained in RPMI 1640 medium (GIBCO, Invitrogen), supplemented with 10% heat-inactivated fetal bovine serum (Invitrogen) at 37° C. with 5% CO2. […]
After treatment cells were centrifuged, lysed using RA1 reagent from Nucleospin RNAII (Macherey Nagel), RNA was extracted following the manufacturer's instructions and quantified using a ND-1000 UV-Vis Spectrophotometer (NanoDrop technologies). The integrity of the RNA was assessed with the Agilent 2100 Bioanalyzer (Agilent), according to the manufacturer's instructions. […]

Compound: COc1cccc2c1C(=O)c1c(O)c3c(c(O)c1C2=O)C[C@@](O)(C(=O)CO)C[C@@H]3O[C@H]1C[C@H](N)[C@H](O)[C@H](C)O1 [doxorubicin]
- expression induction of p53 target genes (RT-QMPSF): showed clearly expression induction of 5 p53 target genes (KIAA0284; PODXL1; RRAD; FHL2; TP53I3) specifically in control lymphocytes
